Reference: patent EP0429333B1, “Process for producing oxazopyrroloquinolines, novel oxazopyrroloquinolines, and use of oxazopyrroloquinolines” (priority 1989, dated 1991)

Assays:
[1] = target: T1, aldose reductase of rabbit lens (Oryctolagus cuniculus, UniProt P15122); experiment: Inhibitory effect on aldose reductase of lens; assay type: biochemical; conditions: read-out: Degree of inhibition for aldose reductase (%)
T1 construct: to obtain electrophoretically homogeneous aldose reductase; from tissue; host or cells: rabbit lens
Protocol: 0.05 ml of 3mM NADPH, 0.1 ml of DL-glyceraldehyde and 0.04 ml of distilled water were added to 0.8 ml of 0.1M phosphoric acid buffer (pH 6.2) and left to stand at 25°C for 3 minutes. Then, 0.01 ml of the aldose reductase solution was added thereto to start reaction and decreasing of absorbance of 340 nm was measured at 25°C with time. Amount of enzyme which consumes 1 µmole of NADPH for 1 minute was taken as 1 unit.
Enzyme activity was measured under the same conditions as in the above measurement of aldose reductase activity except that 0.04 ml of aqueous solution of inhibitory substance in various concentrations was added in place of 0.04 ml of distilled water and degree of inhibition was calculated from comparison of the enzyme activity with the enzyme activity obtained in the absence of inhibitor. (1) OPQ, (2) methyl OPQ, (3) 1-methylpropyl OPQ, (4) 2-methylpropyl OPQ, (5) 2-carbamoylethyl OPQ, (6) hydroxymethyl OPQ, (7) 2-methylthioethyl OPQ, (8) 2-carboxyethyl OPQ, (9) 4-hydroxybenzyl OPQ, (10) 1-methylethyl OPQ, and (11) benzyl OPQ were used as inhibition substances and (12) PQQ was used as control.
Lens of rabbit was homogenized with 10mM phosphoric acid buffer (pH 7.0) containing 2mM dithiothreitol in an amount of two times the volume of the lens and subjected to centrifugation. The supernatant liquid was purified by affinity chromatography, gel filtration and chromatofocusing to obtain electrophoretically homogeneous aldose reductase. Using (1) OPQ, (2) 1-methylpropyl OPQ, (3) 2-methylpropyl OPQ, (4) hydroxymethyl OPQ, and (5) 1-methylethyl OPQ as inhibition substances, degree of inhibition of these substances for aldose reductase of rabbit lens was examined in the same manner in Example 32.

peritoneal macrophage = experiment: Test on macrophage-chemotaxis after intraperitoneal administration; assay type: in vivo, C3H/He mice; conditions: for (2) Chemotaxis factor was present: 50 % zymosan treated serum, no administration 68; for (2) - (1) Chemotaxied macrophage: no administration 58; for Relative activity of group (%): no administration = 100; for (1) Chemotaxis factor was not present: total number of chemotaxied macrophages at 3 points, no administration 10
Protocol: Thirtytwo C3H/He mice (male, 7 weeks old, average body weight 20 g, supplied by Japan Charles River Co.) were divided into 4 groups (A - D) of 8 mice each.
A solution of OPQ in physiological saline of pH 7.0 was intraperitoneally administered to each mouse 7 times, namely, on the 1st day, 2nd day, 3rd day, 4th day, 5th day, 6th day and 7th day. Dosage for one administration per one mouse was as follows: That is, 0.2 ml of the solution containing 0.2 mg/ml of OPQ for group B, 0.2 ml of the solution containing 0.5 mg/ml of OPQ for group C, 0.2 ml of the solution containing 1.0 mg/ml of OPQ for group D and 0.2 ml of physiological saline for group A.
On the 8th day from starting of the experiment, the mice were anesthetized with ether and blood was drawn from carotid artery and 5 ml of cold Hanks solution was intraperitoneally injected and exudate cells for the abdominal cavity were collected. Exudate cells for the abdominal cavity of respective groups were gathered, washed three times with cold Hanks solution and suspended in RPMI medium at 5 x 10^5 cells/ml and macrophage-chemotaxis was measured. 50 % zymosan treated serum was used as chemotaxis factor and examination was conducted at three points for each sample. Number of chemotaxied macrophage was measured on microscope and 13 visual fields was examined for one point and the results are shown in Table 2. The value in the table is a total number of chemotaxied macrophages at 3 points for each sample. Preparation of Hanks solution and RPMI medium will be explained below.
Test on macrophage-chemotaxis was conducted in the same manner as in Example 36 except that hydroxymethyl OPQ was intraperitoneally administered to each mouce 3 times of the 1st day, the 2nd day and the 3rd day in the following dosage for one administration per one mouse: 0.2 ml of hydroxymethyl OPQ solution containing 0.5 mg/ml of hydroxymethyl OPQ for group B, 0.2 ml of the solution containing 1.0 mg/ml of hydroxymethyl OPQ for group C, and 0.2 ml of the solution containing 1.5 mg/ml of hydroxymethyl OPQ for group D and exudate cells for the abdominal cavity were collected on the 4th day from starting of experiment.
In Examples 36 - 40, macrophage activity was examined according to chemotaxis of peritoneal macrophage (literature 1) and activity of T cell and that of B cell were examined according to blast transformation reaction using concanavalin A and lipopolysaccharide, (LPS) as mitogen (literature 2). Literature 1: "Function of Macrophage and Method of Measurement of Function", pages 61-65 1985), edited by Educational Committee of Japan Bacteriological Society and published from Saikon Shuppan Co.) Literature 2: "New Method of Searching of Function of Lymphocytes", pages 350-355 (1987) edited by Junichi Yada and Michio Fujiwara and published from Chugai Igaku Co.

[2] = system: D-galactosamine-induced liver diseases; experiment: Pharmacological effect on D-galactosamine-induced liver diseases; assay type: in vivo, SD rats; conditions: intraperitoneally twice, 1.2 ml of 0.4, 1.0, 2.0 or 3.0 mg/ml; serum 23 hours after D-galactosamine
Protocol: Thirty SD rats (male, 7 weeks old, body weight: about 240 g; supplied by Japan Charles River Co.) were divided to six groups (A-F) each consisting of five rats. All rats were fasted for 18 hours and 1.2 ml of solutions containing 0.4 mg/ml, 1.0 mg/ml, 2.0 mg/ml, and 3.0 mg/ml of OPQ were intraperitoneally administered to rats of groups C, D, E and F, respectively, and furthermore, after lapse of 40 minutes, OPQ in the same doses as above were intraperitoneally administered to the rats, respectively. In these cases, the OPQ was dissolved in physiological saline and administered to the rats. For the rats of group B, 1.2 ml of physiological saline was intraperitoneally administered in place of the OPQ solution.
Furthermore, after lapse of 20 minutes, 1.2 ml of a solution containing 0.2 mg/ml of D-galactosamine was subcutaneously injected to the rats of groups B-F. Neither OPQ nor D-galactosamine was administered to the rats of group A.
After lapse of 23 hours from administration of D-galactosamine, blood was collected from abdominal aorta and serum was obtained by centrifugal separation.
GPT, GOT and total amount of bilirubin were measured by clinical examination reagent (trademark: FUJI DRYCHEMSLIDE manufactured by Fuji Photo Film Co., Ltd.). The results are shown in Table 28 by average value of five rats.

[3] = 2 mg/kg mouse x 7 days intraperitoneally
[4] = 5 mg/kg mouse x 7 days intraperitoneally
[5] = 10 mg/kg mouse x 7 days intraperitoneally

**Q.** Which results are given for O=C(O)c1cc(C(=O)O)c2c(n1)c1ncoc1c1cc(C(=O)O)[nH]c12 [OPQ, oxazopyrroloquinoline]?
**A.** inhibition at 0.1 µM ([1]; concentration 1x10^-7 M): 43.2%; inhibition at 0.2 µM ([1]; concentration 2x10^-7 M): 54.5%; inhibition at 0.5 µM ([1]; concentration 5x10^-7 M): 63.1%; inhibition at 0.05 µM ([1]; concentration 5x10^-8 M): 31%; (2) Chemotaxis factor was present (peritoneal macrophage; [3]): 107; (2) - (1) Chemotaxied macrophage (peritoneal macrophage; [3]): 96; Relative activity of group (%) (peritoneal macrophage; [3]): 166%; (1) Chemotaxis factor was not present (peritoneal macrophage; [3]): 11; (2) Chemotaxis factor was present (peritoneal macrophage; [4]): 96; (2) - (1) Chemotaxied macrophage (peritoneal macrophage; [4]): 87; Relative activity of group (%) (peritoneal macrophage; [4]): 150%; (1) Chemotaxis factor was not present (peritoneal macrophage; [4]): 9; (2) Chemotaxis factor was present (peritoneal macrophage; [5]): 180; (2) - (1) Chemotaxied macrophage (peritoneal macrophage; [5]): 173; Relative activity of group (%) (peritoneal macrophage; [5]): 298%; (1) Chemotaxis factor was not present (peritoneal macrophage; [5]): 7; GPT, GOT and total amount of bilirubin which increased by administration of D-galactosamine [2]: all sharply decreased
